Experiments:
[1] = Tissue distribution of Compound I (liver vs other tissues); type: in vivo; conditions: liver relative to plasma, kidney, lungs, heart, and skin, read-out: Concentration in the liver relative to other tissues
[2] = Phase 1 randomized, open-label study in healthy subjects (PK, safety and tolerability); type: in vivo, human; conditions: all treatment groups
Description: A Phase 1 randomized, open-label study was conducted in 16 healthy subjects. PK samples of Compound I were obtained up to 72 hours after single oral administration of: 1) 5-mg strength and 25-mg strength tablets (prepared according to Example 3) in 16 fasted subjects; 2) 25-mg strength capsule (containing 25 mg Compound I not in a solid dispersion) in 8 fasted subjects; and 3) 5-mg strength tablet (prepared according to Example 3) in 8 subjects after a high-fat, high calorie meal. Safety and tolerability of the tablets and capsule were also assessed.

[3] = BCS classification / aqueous solubility; type: physicochemical
[4] = Solubility study in phosphate buffer (pH=6.8), agitated at 37° C., filtrate measured by UV-vis; type: physicochemical; conditions: phosphate buffer pH 6.8, 37° C.
Description: Compound I, Compound U/Kollidon® VA 64 solid dispersion prepared according to Example 1, and Compound U/Soluplus® solid dispersion prepared according to Example 1 were dissolved in phosphate buffer (pH=6.8) and the resulting mixtures were agitated at 37° C. Samples were taken at 15 minutes, 30 minutes, 60 minutes, 120 minutes, 4 hours, 8 hours, and 24 hours.

Kp [1]: ~20
Aqueous solubility (in words) [3]: low aqueous solubility
BCS class [3]: BCS class II
Solubility in phosphate buffer (in words) [4]: low solubility
Concentration of Compound I ([4]; 15 min): 0.086 µg/mL
Concentration of Compound I ([4]; 30 min): 0.166 µg/mL
Concentration of Compound I ([4]; 60 min): 0.172 µg/mL
Concentration of Compound I ([4]; 120 min): 0.188 µg/mL
Concentration of Compound I ([4]; 4 hrs): 0.166 µg/mL
Concentration of Compound I ([4]; 8 hrs): 0.207 µg/mL
Concentration of Compound I ([4]; 24 hrs): 0.250 µg/mL
Compound: Cn1cc(C(=O)O)c2ccc(N3CCC(OCc4c(-c5c(Cl)cccc5Cl)noc4C4CC4)CC3)cc21 [Compound I, 6-(4-((5-cyclopropyl-3-(2,6-dichlorophenyl)isoxazol-4-yl)methoxy)piperidin-1-yl)-1-methyl-1H-indole-3-carboxylic acid]
Safety and tolerability [2]: safe and well tolerated
